What was measured:
Assay in all cases: relative viability (nuclei count vs DMSO), 5 days (fraction); higher = more cells survive
AZ3146 + Bortezomib = compound: CN1CCC(CC1)OC2=CC(=C(C=C2)NC3=NC=C4C(=N3)N(C(=O)N4C)C5CCCC5)OC [AZ3146] + CC(C)C[C@H](NC(=O)[C@H](Cc1ccccc1)NC(=O)c1cnccn1)B(O)O [Bortezomib] (partner 0.002 µM)
Outline: (§1)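 Each reported value is a median over duplicate plates. It expresses relative viability: treated-well nuclei count divided by vehicle-well nuclei count. Lung cancer cell lines in 1536-well plates were dosed by pin tool a day after seeding, alone with one drug or with a fixed anchor-drug dose plus five library-drug doses (not always all listed) in √10 steps, and nuclei were counted after 5 days.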

GSK-J4 + Tozasertib = compound: CCOC(=O)CCNc1cc(N2CCc3ccccc3CC2)nc(-c2ccccn2)n1 [GSK-J4] + Cc1cc(Nc2cc(N3CCN(C)CC3)nc(Sc3ccc(NC(=O)C4CC4)cc3)n2)n[nH]1 [Tozasertib] (partner 0.1 µM)
Outline: as §1

AZ3146 + Foretinib = compound: CN1CCC(CC1)OC2=CC(=C(C=C2)NC3=NC=C4C(=N3)N(C(=O)N4C)C5CCCC5)OC [AZ3146] + COc1cc2c(Oc3ccc(NC(=O)C4(C(=O)Nc5ccc(F)cc5)CC4)cc3F)ccnc2cc1OCCCN1CCOCC1 [Foretinib] (partner 0.25 µM)
Outline: as §1

AZ3146 + Linsitinib = compound: CN1CCC(CC1)OC2=CC(=C(C=C2)NC3=NC=C4C(=N3)N(C(=O)N4C)C5CCCC5)OC [AZ3146] + C[C@]1(O)C[C@@H](c2nc(-c3ccc4ccc(-c5ccccc5)nc4c3)c3c(N)nccn32)C1 [Linsitinib] (partner 1 µM)
Outline: as §1

Cell Line	relative viability (AZ3146 + Bortezomib; first compound 0.08 µM)	relative viability (AZ3146 + Bortezomib; first compound 0.253 µM)	relative viability (AZ3146 + Bortezomib; first compound 0.8 µM)	relative viability (AZ3146 + Bortezomib; first compound 2.53 µM)	relative viability (AZ3146 + Bortezomib; first compound 8 µM)	relative viability (GSK-J4 + Tozasertib; first compound 0.5 µM)	relative viability (GSK-J4 + Tozasertib; first compound 1.581 µM)	relative viability (GSK-J4 + Tozasertib; first compound 5 µM)	relative viability (GSK-J4 + Tozasertib; first compound 15.81 µM)	relative viability (GSK-J4 + Tozasertib; first compound 50 µM)	relative viability (AZ3146 + Foretinib; first compound 0.08 µM)	relative viability (AZ3146 + Foretinib; first compound 0.253 µM)	relative viability (AZ3146 + Foretinib; first compound 0.8 µM)	relative viability (AZ3146 + Foretinib; first compound 2.53 µM)	relative viability (AZ3146 + Foretinib; first compound 8 µM)	relative viability (AZ3146 + Linsitinib; first compound 0.08 µM)	relative viability (AZ3146 + Linsitinib; first compound 0.253 µM)	relative viability (AZ3146 + Linsitinib; first compound 0.8 µM)	relative viability (AZ3146 + Linsitinib; first compound 2.53 µM)	relative viability (AZ3146 + Linsitinib; first compound 8 µM)
NCI-H2085	1	1.09	0.962	1.18	0.952	0.765	0.733	0.756	0.806	0.652	0.898	1	0.977	1	0.868	0.898	0.848	0.956	0.912	0.727
NCI-H2087	0.676	0.908	0.734	0.955	0.916	0.265		0.281	0.217	0.251	1.06	1.11	1.12	1.05	0.531	0.816	0.952	1.11	1.02	1
NCI-H2126	1.07	1.11	1.09	1.09	1.08	0.793	0.676	0.794	0.839	0.733	0.911	1.31	1.04	1.25	1.29	0.687	0.667	0.761	0.739	0.696
NCI-H2228	0.904	1.03	1.04	1.18	0.953	0.221	0.237	0.246	0.247	0.212	0.736	0.743	0.736	0.88	0.656	1	0.867	0.657	0.628	0.774
NCI-H2347	0.747	1.08	0.758	1.02	1.02	0.573	0.452	0.534		0.476	0.89	0.934	0.501	1.1	1.07	1.01	0.893	0.891	0.887	0.988
NCI-H2405	1.02	1	0.944	0.994	1.11	0.743	0.703		0.719	0.671	1.02	1.03	1.13	1.1	1.09	0.973		1.04	0.937	0.747
NCI-H3122	1.08	1	0.997	0.999	1.07	0.516		0.371	0.275	0.442	0.924	1.02	0.971	0.942	1.03	1.02	1.06	1.03	1.04	1.06
PC-3 [JPC-3]	0.806	0.84	0.83	0.959	0.859	0.838	0.824	0.883	0.815	0.702	0.927	1.02	1.03	1.14	0.966	0.972	0.96	1.01	0.996	0.932
PC-14	0.872	0.891	0.846	0.997	0.721	0.547	0.542		0.564	0.665	0.891	0.9	0.969	1.02	1.02	1.05	0.995	0.98	1.03	0.941
RERF-LC-KJ	1.07	1.15	1.24	1.04	0.98	0.415	0.428	0.483	0.493	0.357	0.851	0.862	0.895	0.942	0.844	0.904	0.902	0.972	0.876	0.896
SK-LU-1			1.02	1.15	1.5	0.306	0.28	0.289	0.326	0.276	0.803	0.867	0.804	0.897	0.528	1.02	1.4	1.13	1.27	0.547
SW 1573	0.995	1.03	1.09	0.869	0.777	0.206	0.129	0.164	0.199	0.177	0.897	0.732	0.983	1.15	0.884	0.912	0.933	0.823	0.859	0.708
UMC-11	0.814	0.661	0.598	0.675	0.635	0.189			0.176	0.17	0.959	1.04	1.11	0.813	0.261	0.989	1.05	0.992	0.922	0.577

— the supplement of paper PMC10307832
